Measurements: ChEMBL document CHEMBL1201862, “PubChem BioAssay data set” (2004)
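Step 1: Grow cells in 96-well plates. Step 2: Expose to compound for 48 hours at 5 concentrations. Step 3: Interpolate endpoints linearly; if unreached, use highest concentration. Here, GI50 denotes the concentration required for 50% inhibition of growth.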 The source made the active and inactive calls. No stated cut-off is given here; in the data, active = GI50 up to about 1.1 µM and inactive = higher. Square brackets hold non-standard residues; d marks the D form. Peptide text beside a SMILES is read from it. * marks the point of attachment. ξ: configuration not given here. NMeN = CN[C@@H](CC(N)=O)C(=O)O; NMeV = CN[C@H](C(=O)O)C(C)C; ξNMeV = CNC(C(=O)O)C(C)C; Boc = CC(C)(C)OC(=O)*; ξNMeA = CNC(C)C(=O)O

How the values were obtained:
Test in all cases: NCI tumour cell line growth inhibition, 48 h
[1] = system: TK-10
[2] = system: DMS-273
[3] = system: SR
[4] = system: SF-539
[5] = system: M14
[6] = system: IGROV-1
[7] = system: ACHN
[8] = system: SN12C
[9] = system: COLO 205
[10] = system: MOLT-4
[11] = system: U-251
[12] = system: OVCAR-4
[13] = system: SW-620
[14] = system: NCI-H460
[15] = system: HOP-92
[16] = system: NCI-H23
[17] = system: SF-295
[18] = system: NCI/ADR-RES
[19] = system: MDA-MB-231

Measured: GI50

O=c1ccn(C2(CO)C=C(CO)C(O)C2O)c(=O)[nH]1 (configuration not stated)
inactive: [1] > 25.7 µM | [2] > 25.7 µM | [3] > 25.7 µM | [4] > 25.7 µM | [5] > 25.7 µM | [6] > 25.7 µM | [7] > 25.7 µM | [8] > 25.7 µM | [9] > 25.7 µM | [10] > 25.7 µM | [11] > 25.7 µM | [12] > 25.7 µM | [13] > 25.7 µM | [14] > 25.7 µM

COc1cc(/C=C2\CCC(C)(CN(C)C)C2=O)cc(OC)c1OC (configuration not stated)
inactive: [1] > 100 µM | [2] > 100 µM | [3] 63.4 µM | [4] > 100 µM | [5] > 100 µM | [6] > 100 µM | [7] > 100 µM | [8] > 100 µM | [9] > 100 µM | [10] > 83.6 µM | [11] > 100 µM | [12] > 100 µM | [13] > 100 µM | [15] > 100 µM | [16] > 100 µM | [17] > 100 µM | [14] > 100 µM

CC1=NN(C(=O)Cc2ccccc2)C(=O)/C1=C\C=C\c1ccccc1
inactive: [1] > 100 µM | [2] > 100 µM | [3] > 100 µM | [4] > 100 µM | [5] > 100 µM | [7] > 100 µM | [8] > 100 µM | [9] > 100 µM | [10] > 100 µM | [12] > 100 µM | [13] > 100 µM | [16] > 100 µM | [17] > 100 µM

N#Cc1cccc(/C=N/C23CC4CC(CC(C4)C2)C3)c1
inactive: [1] > 100 µM | [2] > 100 µM | [3] 76.2 µM | [4] > 100 µM | [5] > 100 µM | [6] > 100 µM | [7] > 100 µM | [8] > 100 µM | [9] > 100 µM | [10] 99.1 µM | [11] > 100 µM | [12] > 100 µM | [13] > 100 µM | [15] > 100 µM | [16] > 100 µM | [17] > 100 µM | [14] > 100 µM

COC(=O)C(C)N(C)C(=O)[C@H](CC(N)=O)N(C)C(=O)[C@@H]1CCCN1C(=O)[C@H](C(C)C)N(C)C(=O)C(C(C)C)N(C)C(=O)[C@@H](NC(=O)OC(C)(C)C)C(C)C (some centres not stated) (Boc-V[ξNMeV][NMeV]P[NMeN][ξNMeA]-OMe)
inactive: [1] > 50 µM | [2] 42.1 µM | [3] > 100 µM | [4] > 50 µM | [5] > 50 µM | [6] > 50 µM | [7] > 50 µM | [8] > 50 µM | [9] > 50 µM | [10] 9.93 µM | [11] > 50 µM | [18] > 50 µM | [19] > 50 µM | [12] > 100 µM | [13] > 50 µM | [15] > 50 µM | [16] > 50 µM | [17] > 50 µM | [14] > 50 µM

CC1(C)CCc2cc3c(cc2O1)OC(C)(C)C1c2c(ccc4c2CCC(C)(C)O4)OC31 (configuration not stated)
inactive: [2] > 100 µM | [3] > 100 µM | [4] > 100 µM | [5] 42.9 µM | [6] > 100 µM | [7] > 100 µM | [8] > 100 µM | [9] > 100 µM | [10] > 100 µM | [11] > 100 µM | [12] > 100 µM | [13] > 100 µM | [15] > 100 µM | [16] > 100 µM | [17] > 100 µM | [14] > 100 µM

CC1CC(c2ccc([N+](=O)[O-])cc2)=Nc2ccccc2S1 (configuration not stated)
inactive: [1] 28.2 µM | [2] 20.2 µM | [3] 5.09 µM | [4] 16.9 µM | [5] 14.2 µM | [6] 18 µM | [7] 19.7 µM | [8] 18.2 µM | [9] 24 µM | [10] 18.1 µM | [11] 15.2 µM | [12] 16.7 µM | [13] 15.6 µM | [15] 29 µM | [16] 15.8 µM | [17] 19.1 µM | [14] 27.1 µM

CCOC(=O)c1cnc2oc(-c3ccc(OC)cc3)nn2c1=O
inactive: [1] > 100 µM | [2] > 100 µM | [3] > 10 µM | [4] > 100 µM | [6] > 100 µM | [8] > 100 µM | [9] > 100 µM | [10] > 100 µM | [11] > 100 µM | [12] > 100 µM | [13] > 100 µM | [15] 29.5 µM | [16] > 100 µM | [17] > 100 µM

COc1ccc2c([nH]c3c(O)c(-c4c(C)cc5c([nH]c6c(CC=C(C)C)c(OC)ccc65)c4O)c(C)cc32)c1CC=C(C)C [BISMURRAYAFOLINE B]
inactive: [1] > 100 µM | [2] > 100 µM | [3] > 100 µM | [4] > 100 µM | [5] > 100 µM | [6] > 100 µM | [7] > 100 µM | [8] > 100 µM | [9] > 100 µM | [10] > 100 µM | [11] > 100 µM | [12] > 100 µM | [13] > 100 µM | [15] > 100 µM | [16] > 100 µM | [17] > 100 µM | [14] > 100 µM

CCCCCCCCCCCC(=O)OCC1OC(n2cc(F)c(=O)[nH]c2=O)C(N)C(O)C1O (configuration not stated)
inactive: [2] > 100 µM | [3] 81.7 µM | [4] > 100 µM | [5] > 100 µM | [6] > 100 µM | [7] > 100 µM | [8] > 100 µM | [9] 60.3 µM | [10] 36.3 µM | [11] 79.1 µM | [12] > 100 µM | [13] > 100 µM | [15] > 100 µM | [16] 84.7 µM | [17] > 100 µM | [14] 78.9 µM

S=c1nc2c(c[nH]1)C1c3ccccc3C2c2ccccc21
inactive: [1] > 100 µM | [2] > 100 µM | [3] 34 µM | [4] > 100 µM | [5] 79.8 µM | [6] 69.2 µM | [7] 61.2 µM | [8] > 100 µM | [9] 88.7 µM | [10] 31.8 µM | [11] 91.2 µM | [12] 39.2 µM | [13] > 100 µM | [16] > 100 µM | [17] 40.1 µM | [14] > 100 µM

Cc1ccc(NS(=O)(=O)c2cc(C(C)(C)C)ccc2OCCOCCOCCOc2ccc(C(C)(C)C)cc2S(=O)(=O)Nc2ccc(C)cc2)cc1
inactive: [1] > 100 µM | [2] > 100 µM | [4] > 100 µM | [5] > 100 µM | [6] > 100 µM | [7] > 100 µM | [8] > 100 µM | [9] > 100 µM | [10] > 100 µM | [11] > 100 µM | [12] > 100 µM | [13] > 100 µM | [15] > 100 µM | [16] > 100 µM | [17] > 100 µM | [14] > 100 µM

NC(=O)N/N=C(\C(=O)C(=O)Nc1ccc(Cl)c(C(F)(F)F)c1)c1nc2ccc(C(=O)c3ccccc3)cc2nc1O
inactive: [1] > 100 µM | [2] > 100 µM | [3] 45.7 µM | [4] > 100 µM | [5] > 100 µM | [6] > 100 µM | [7] 82.4 µM | [8] 99.5 µM | [9] > 100 µM | [10] 35.3 µM | [11] > 100 µM | [12] 53.8 µM | [13] > 100 µM | [15] 7.36 µM | [16] 97.9 µM | [17] > 100 µM | [14] > 100 µM

C/C(=N\N(C)C)C(CN1CCCCC1)C(c1ccccc1)c1c(O)c2ccccc2oc1=O (configuration not stated)
inactive: [1] > 100 µM | [2] > 100 µM | [3] > 100 µM | [4] > 100 µM | [5] > 100 µM | [6] > 100 µM | [7] > 100 µM | [8] > 100 µM | [9] > 100 µM | [10] > 100 µM | [11] > 100 µM | [12] > 100 µM | [13] > 100 µM | [16] > 100 µM | [17] > 100 µM | [14] > 100 µM

Oc1cc(-c2c[nH]c3ccccc23)nc2cc3c(cc12)OCO3
inactive: [1] > 100 µM | [2] > 100 µM | [3] > 100 µM | [4] > 100 µM | [5] > 100 µM | [6] 83.2 µM | [7] > 100 µM | [8] > 100 µM | [9] > 100 µM | [10] > 100 µM | [11] > 100 µM | [12] 3.79 µM | [13] > 100 µM | [16] > 100 µM | [17] 92.3 µM | [14] > 100 µM

O=C(O)CP(=S)(S)c1ccccc1 (configuration not stated)
inactive: [1] > 100 µM | [2] > 100 µM | [3] > 100 µM | [4] > 100 µM | [5] > 100 µM | [7] > 100 µM | [8] > 100 µM | [9] > 100 µM | [10] > 100 µM | [11] > 100 µM | [12] > 100 µM | [13] > 100 µM | [15] > 100 µM | [16] > 100 µM | [17] > 100 µM | [14] > 100 µM
